ChEMBL document CHEMBL3046464, “3D quantitative structureactivity relationship for quinoline, benzimidazole and benzofuran-based analogs as phosphodiesterases IV (PDE-IV) inhibitors” (Med Chem Res, 2013)

Target: Phosphodiesterase 4 (Homo sapiens, UniProt P27815+Q08499+Q07343+Q08493)
Assay: Inhibition of PDE4 in Homo sapiens (human) U937 cells
Format: cell-based
Settings: u-937

pIC50	Structure (SMILES)
6.678	CO/N=C(\C)c1ccc2c(C(=O)Nc3c(Cl)cncc3Cl)ccc(OC)c2n1
5	COc1ccc(C(=O)Nc2c(Cl)cncc2Cl)c2c1ncn2C
